Source: article PMC5681660, “Reduced hepatitis B and D viral entry using clinically applied drugs as novel inhibitors of the bile acid transporter NTCP” (Scientific Reports, 2017)
Where a name gives a salt, the structure may show the parent alone. Read-outs that look alike come from different tables or passages of the source. Starred links: 1 amine or outer side, 2 acyl side, 3 side chain; linkers in the order of their positions; H or OH if unused. Positions of bridges follow the written chain, without caps; N, C: chain ends. Non-standard residues stand in square brackets, D forms with d. Residues, ends and D or L forms follow the SMILES beside them. *: point of attachment. X1 = NC1=N[C@@H]([C@H](N[*:1])C(=O)[*:2])C[C@H](O)N1; ΔAla(Z-3-ureido) = NC(=O)N/C=C(\N)C(=O)O; β3hOrn = NCCC[C@H](N)CC(=O)*; Dap = NC[C@H](N)C(=O)O

Key:
[1] = molecular target: T1, human NTCP (Homo sapiens, UniProt Q14973); experiment: Screening fluorescent competitive Myrcludex B-FITC binding assay (96-well, 10 µM drug)
T1 sequence (Q14973 1-349): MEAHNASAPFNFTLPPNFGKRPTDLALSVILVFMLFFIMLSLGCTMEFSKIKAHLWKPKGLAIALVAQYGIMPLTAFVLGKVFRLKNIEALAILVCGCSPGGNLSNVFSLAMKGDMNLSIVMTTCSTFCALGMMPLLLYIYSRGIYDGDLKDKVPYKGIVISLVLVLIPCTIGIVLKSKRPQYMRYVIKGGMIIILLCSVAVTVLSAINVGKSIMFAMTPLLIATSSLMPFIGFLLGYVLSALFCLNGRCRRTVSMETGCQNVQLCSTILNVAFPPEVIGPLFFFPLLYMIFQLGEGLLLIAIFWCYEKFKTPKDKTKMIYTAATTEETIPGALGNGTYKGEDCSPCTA

[2] = molecular target: T1, human NTCP; experiment: Screening taurocholate uptake assay (96-well, [14C]taurocholate, 10 µM drug)
[3] = screen, 10 µM drug, Myrcludex B-FITC binding
[4] = combined ranking from functional and binding screening assays
[5] = screen, 10 µM drug, taurocholate uptake
[6] = Prestwick library screen, Myrcludex B-FITC binding, 10 µM drug
[7] = Prestwick library screen, taurocholate uptake, 10 µM drug
[8] = ranking score beside the functional and binding assay B-scores of the screen
[9] = Prestwick library screen, 10 µM drug, B-score of Myrcludex B-FITC binding
[10] = Prestwick library screen, 10 µM drug, B-score of taurocholate uptake
[11] = combined ranking from functional and binding assay B-scores

Structure (SMILES): COc1cccc(C2(O)CCCCC2CN(C)C)c1.Cl (stereo not drawn) [Tramadol hydrochloride]
- B-score binding assay [1, 3]: -1.463
- Ranking score [2, 4]: 410.66
- B-score functional assay [2, 5]: 0.906

Structure (SMILES): N[C@@H]1C[C@H]1c1ccccc1 [Tranylcypromine hydrochloride]
- B-score binding assay [1]: 1.095
- B-score functional assay [2]: 0.857
- Ranking score [2]: 1041.86

Structure (SMILES): O=c1n(CCCN2CCN(c3cccc(Cl)c3)CC2)nc2ccccn12 [Trazodone hydrochloride]
- B-score binding assay [1, 6]: -0.001
- B-score functional assay [2, 7]: 0.169
- Ranking score [2, 8]: 707.824

Structure (SMILES): C(#CCN1CCCC1)CN1CCCC1.Cl.Cl [Tremorine dihydrochloride]
- B-score binding assay [1, 3]: 1.525
- Ranking score [2, 4]: 382.832
- B-score functional assay [2, 5]: -2.034

Structure (SMILES): C[C@]12C=CC(=O)C=C1CC[C@H]1[C@@H]3C[C@@H](O)[C@](O)(C(=O)CO)[C@@]3(C)C[C@H](O)[C@@]12F [Triamcinolone]
- B-score binding assay [1, 6]: -0.283
- B-score functional assay [2, 7]: 1.923
- Ranking score [2, 8]: 735.139

Structure (SMILES): Nc1nc(N)c2nc(-c3ccccc3)c(N)nc2n1 [Triamterene]
- B-score binding assay [1, 6]: -0.121
- B-score functional assay [2, 7]: 0.708
- Ranking score [2, 8]: 725.193

Structure (SMILES): CCOC1O[C@H]([C@@H](COCc2ccccc2)OCc2ccccc2)[C@H](OCc2ccccc2)[C@H]1O (stereo partly drawn) [Tribenoside]
- B-score binding assay [1, 3]: -0.023
- Ranking score [2, 4]: 300.985
- B-score functional assay [2, 5]: -1.789

Structure (SMILES): COP(=O)(OC)C(O)C(Cl)(Cl)Cl (stereo not drawn) [Trichlorfon]
- B-score binding assay [1, 3]: 0.016
- Ranking score [2, 4]: 431.184
- B-score functional assay [2, 5]: -0.853

Structure (SMILES): NS(=O)(=O)c1cc2c(cc1Cl)NC(C(Cl)Cl)NS2(=O)=O (stereo not drawn) [Trichlormethiazide]
- B-score binding assay [1, 9]: 0.486
- B-score functional assay [2, 10]: 0.593
- Ranking score [2, 11]: 921.314

Structure (SMILES): CN1CCN(CCCN2c3ccccc3Sc3ccc(C(F)(F)F)cc32)CC1 [Trifluoperazine dihydrochloride]
- B-score binding assay [1, 6]: -0.002
- B-score functional assay [2, 7]: 0.212
- Ranking score [2, 8]: 714.92

Structure (SMILES): CN(C)CCCN1c2ccccc2Sc2ccc(C(F)(F)F)cc21 [Triflupromazine hydrochloride]
- B-score binding assay [1, 3]: -0.314
- Ranking score [2, 4]: 447.888
- B-score functional assay [2, 5]: -0.264

Structure (SMILES): O=c1[nH]c(=O)n([C@H]2C[C@H](O)[C@@H](CO)O2)cc1C(F)(F)F [Trifluridine]
- B-score binding assay [1, 9]: 2.847
- B-score functional assay [2, 10]: 0.173
- Ranking score [2, 11]: 994.589

Structure (SMILES): CC(=O)Oc1cc(C(F)(F)F)ccc1C(=O)O [Triflusal]
- B-score binding assay [1, 3]: -0.002
- Ranking score [2, 4]: 440.15
- B-score functional assay [2, 5]: -0.747

Structure (SMILES): CC(CN(C)C)CN1c2ccccc2Sc2ccccc21.CC(CN(C)C)CN1c2ccccc2Sc2ccccc21.O=C(O)C(O)C(O)C(=O)O (stereo not drawn) [Trimeprazine tartrate]
- B-score binding assay [1, 3]: -0.763
- Ranking score [2, 4]: 352.65
- B-score functional assay [2, 5]: -0.375

Structure (SMILES): COc1ccc(CN2CCNCC2)c(OC)c1OC [Trimetazidine dihydrochloride]
- B-score binding assay [1, 3]: -1.545
- Ranking score [2, 4]: 350.668
- B-score functional assay [2, 5]: 0.211

Structure (SMILES): CN1C(=O)OC(C)(C)C1=O [Trimethadione]
- B-score binding assay [1, 9]: 0.001
- B-score functional assay [2, 10]: 1.466
- Ranking score [2, 11]: 860.791

Structure (SMILES): COc1cc(C(=O)N2CCOCC2)cc(OC)c1OC [Trimetozine]
- B-score binding assay [1, 9]: 0.441
- B-score functional assay [2, 10]: 0.651
- Ranking score [2, 11]: 925.93

Structure (SMILES): Cc1cc2cc3c(C)cc(=O)oc3c(C)c2o1 [Trioxsalen]
- B-score binding assay [1, 9]: 1.537
- B-score functional assay [2, 10]: 0.56
- Ranking score [2, 11]: 1035.49

Structure (SMILES): CO[C@H]1C[C@H](O[C@H]2[C@H](C)[C@@H](O[C@@H]3O[C@H](C)C[C@H](N(C)C)[C@H]3OC(C)=O)[C@@H](C)C[C@@]3(CO3)C(=O)[C@H](C)[C@@H](OC(C)=O)[C@@H](C)[C@@H](C)OC(=O)[C@@H]2C)O[C@@H](C)[C@@H]1OC(C)=O [Troleandomycin]
- B-score binding assay [1, 6]: 0.633
- B-score functional assay [2, 7]: -0.071
- Ranking score [2, 8]: 732.508

Structure (SMILES): COc1cc(C(=O)NC2CCCNC2)cc(OC)c1OC (stereo not drawn) [Troxipide]
- B-score binding assay [1, 9]: 2.726
- B-score functional assay [2, 10]: 0.286
- Ranking score [2, 11]: 1019.78

Structure (SMILES): CC[C@H]1OC(=O)C[C@@H](O)[C@H](C)[C@@H](O[C@@H]2O[C@H](C)[C@@H](O[C@H]3C[C@@](C)(O)[C@@H](O)[C@H](C)O3)[C@H](N(C)C)[C@H]2O)[C@@H](CC=O)C[C@@H](C)C(=O)/C=C/C(C)=C/[C@@H]1CO[C@@H]1O[C@H](C)[C@@H](O)[C@@H](OC)[C@H]1OC [Tylosin]
- B-score binding assay [1, 9]: 2.256
- B-score functional assay [2, 10]: 0.165
- Ranking score [2, 11]: 978.04

Structure (SMILES): COc1ccccc1N1CCN(CCCNc2cc(=O)n(C)c(=O)n2C)CC1 [Urapidil hydrochloride]
- B-score binding assay [1, 9]: 1.015
- B-score functional assay [2, 10]: 0.807
- Ranking score [2, 11]: 1027.42

Structure (SMILES): Cc1onc(-c2ccccc2)c1-c1ccc(S(N)(=O)=O)cc1 [Valdecoxib]
- B-score binding assay [1, 6]: 0.051
- B-score functional assay [2, 7]: -0.028
- Ranking score [2, 8]: 650.385

Structure (SMILES): CCCC(CCC)C(=O)O [Valproic acid]
- B-score binding assay [1, 9]: 1.515
- B-score functional assay [2, 10]: 0.92
- Ranking score [2, 11]: 1093.47

Structure (SMILES): CCCCC(=O)N(Cc1ccc(-c2ccccc2-c2nnn[nH]2)cc1)[C@H](C(=O)O)C(C)C [Valsartan]
- B-score binding assay [1]: 0.016
- Ranking score [2]: 721.211
- B-score functional assay [2, 7]: 0.156

Structure (SMILES): CN[C@H](CC(C)C)C(=O)N[C@H]1C(=O)N[C@@H](CC(N)=O)C(=O)N[C@H]2C(=O)N[C@H]3C(=O)N[C@H](C(=O)N[C@H](C(=O)O)c4cc(O)cc(O)c4-c4cc3ccc4O)[C@H](O)c3ccc(c(Cl)c3)Oc3cc2cc(c3O[C@@H]2O[C@H](CO)[C@@H](O)[C@H](O)[C@H]2O[C@H]2C[C@](C)(N)[C@H](O)[C@H](C)O2)Oc2ccc(cc2Cl)[C@H]1O [Vancomycin hydrochloride]
- B-score binding assay [1]: 1.401
- B-score functional assay [2]: -0.819
- Ranking score [2]: 571.108

Structure (SMILES): CC(=O)O[C@H]1C[C@@H]2CC[C@@H]3[C@H](CC[C@@]4(C)[C@H]3C[C@H]([N+]3(C)CCCCC3)[C@@H]4OC(C)=O)[C@@]2(C)C[C@@H]1N1CCCCC1 [Vecuronium bromide]
- B-score binding assay [1, 6]: 0.155
- B-score functional assay [2, 7]: 0.006
- Ranking score [2, 8]: 708.114

Structure (SMILES): Nc1ncnc2c1ncn2[C@@H]1O[C@H](CO)[C@@H](O)[C@@H]1O [Vidarabine]
- B-score binding assay [1, 3]: 1.523
- Ranking score [2, 4]: 319.086
- B-score functional assay [2, 5]: -2.606

Structure (SMILES): C=CC(N)CCC(=O)O (stereo not drawn) [Vigabatrin]
- B-score binding assay [1, 6]: 0.671
- B-score functional assay [2, 7]: -0.08
- Ranking score [2, 8]: 730.208

Structure (SMILES): CCOc1ccccc1OCC1CNCCO1 (stereo not drawn) [Viloxazine hydrochloride]
- B-score binding assay [1]: -0.914
- B-score functional assay [2]: -1.513
- Ranking score [2]: 214.483

Structure (SMILES): CC[C@]12CCCN3CCc4c(n(c5ccccc45)[C@@](O)(C(=O)OC)C1)[C@@H]32 [Vincamine]
- B-score binding assay [1, 6]: 0.616
- B-score functional assay [2, 7]: -0.257
- Ranking score [2, 8]: 659.7

Structure (SMILES): CCOC(=O)C1=C[C@]2(CC)CCCN3CCc4c(n1c1ccccc41)[C@@H]32 [Vinpocetine]
- B-score binding assay [1, 3]: -1.57
- Ranking score [2, 4]: 428.448
- B-score functional assay [2, 5]: 2.672

Structure (SMILES): NCCC[C@H](N)CC(=O)N[C@H]1CNC(=O)[C@H]([C@H]2C[C@H](O)NC(N)=N2)NC(=O)/C(=C/NC(N)=O)NC(=O)[C@H](CO)NC(=O)[C@H](CO)NC1=O.O=S(=O)(O)O [Viomycin sulfate] (β3hOrn-[Dap]SS[ΔAla(Z-3-ureido)][X1]; lactam 1-C)
- B-score binding assay [1, 9]: 0.234
- B-score functional assay [2, 10]: 0.436
- Ranking score [2, 11]: 846.67

Structure (SMILES): C[C@@H](c1ncncc1F)[C@](O)(Cn1cncn1)c1ccc(F)cc1F [Voriconazole]
- B-score binding assay [1, 3]: -0.464
- Ranking score [2, 4]: 370.988
- B-score functional assay [2, 5]: -0.582

Structure (SMILES): CC(=O)CC(c1ccccc1)c1c(O)c2ccccc2oc1=O (stereo not drawn) [Warfarin]
- B-score binding assay [1, 3]: 0.123
- Ranking score [2, 4]: 391.491
- B-score functional assay [2, 5]: -1.345

Structure (SMILES): O=C(NCCNCC(O)COc1ccc(O)cc1)N1CCOCC1 (stereo not drawn) [Xamoterol hemifumarate]
- B-score binding assay [1]: -0.721
- B-score functional assay [2]: 0.875
- Ranking score [2]: 564.879

Structure (SMILES): Cc1cccc(C)c1N=C1NCCCS1 [Xylazine]
- B-score binding assay [1]: -0.164
- B-score functional assay [2]: -0.697
- Ranking score [2]: 404.611

Structure (SMILES): Cc1cc(C(C)(C)C)cc(C)c1CC1=NCCN1 [Xylometazoline hydrochloride]
- B-score binding assay [1, 3]: -1.17
- Ranking score [2, 4]: 287.23
- B-score functional assay [2, 5]: -0.462

Structure (SMILES): Nc1ccn([C@H]2CC[C@@H](CO)O2)c(=O)n1 [Zalcitabine]
- B-score binding assay [1, 6]: -0.087
- B-score functional assay [2, 7]: 1.286
- Ranking score [2, 8]: 782.741

Structure (SMILES): COc1cc(-c2ccc(=O)[nH]n2)ccc1OC(F)F [Zardaverine]
- B-score binding assay [1, 3]: 0.49
- Ranking score [2, 4]: 379.335
- B-score functional assay [2, 5]: -1.701

Structure (SMILES): Cc1cn([C@H]2C[C@H](N=[N+]=[N-])[C@@H](CO)O2)c(=O)[nH]c1=O [Zidovudine, AZT]
- B-score binding assay [1, 9]: 0.429
- B-score functional assay [2, 10]: 1.119
- Ranking score [2, 11]: 985.737
